Reference: patent publication US20260049062A1, “SARS-COV-2 INHIBITORS FOR TREATING CORONAVIRUS INFECTIONS” (Insilico Medicine IP Limited, priority 2021, published 2026)

Test system: SARS-CoV-2
Experiment: In vitro antiviral cell-based assay (live SARS-CoV-2), plaque reduction assay in VeroE6 cells
Conditions: Severe acute respiratory syndrome coronavirus 2, Vero, read-out: Vero EC50 (μM)

CC(C(=O)NC1CCC(F)(F)CC1)(c1cncnc1)N(C(=O)[C@H](F)Cl)c1ccc(-c2cncs2)cc1 (single isomer, unassigned) [Example 1a]
EC50: 0.1 to 1 µM
